Values joined by “and” are separate entries in the source; they are usually repeats but may differ in a detail not shown here. Equal entries are not always repeated.
Key:
[1] = test system: Marmoset monkeys (Callithrix jacchus), established endometriosis; assay: Colour Doppler ultrasonic scanning of blood flow (bladder area, reproductive tract area); format: in vivo; parameters: key to Individual data on blood flow bladder / Individual data on blood flow repro tract: 0=blood flow not visible; 1=weak blood flow; 2=medium blood flow; 3=massive blood flow; conditions: for Individual data on blood flow bladder / Individual data on blood flow repro tract: individual animals 1-8 (one line each), 6.67 mg/kg; for Individual data on blood flow bladder / Individual data on blood flow repro tract / Blood flow bladder, median score / Blood flow repro tract, median score: oral 6.67 mg/kg twice/day; for Blood flow bladder, median score / Blood flow repro tract, median score: median of 8 animals, scale 0-3, baseline median 2
Experimental: (§1) The substance as depicted below (prepared according to the procedure in WO 2012/022793 A1) was orally administered (as the hydrogen sulphate salt thereof) for 6 weeks to common marmoset monkeys at a dose of 6.67 mg/kg twice/day (calculated based on the free base, with the actual weight of compound administered calculated as required for the hydrogen sulphate salt).
(§2) The age of the marmosets ranged between 3 and 16 years. All animals were female and had established endometriosis over years. Induction of endometriosis was performed as described in Einspanier et al., Mol Human Reprod., 12(5), 291-9 (2006).
Colour Doppler ultrasonic scanning was done before and 3 times during the treatment period to follow blood flow. Colour doppler scanning was carried out as described by Einspanier (ibid).
Colour Doppler ultrasonic scanning was performed to measure blood flow in the reproductive tract (uterus and ovaries) area as well as in the bladder area.
Individual blood flow measurements are provided in Table 1, 0=blood flow not visible, 1=weak blood flow, 2=medium blood flow and 3=massive blood flow.

[2] = test system: Marmoset monkeys (Callithrix jacchus), established endometriosis; assay: Laparotomy assessment of endometriotic lesions (number and size of foci); format: in vivo
Experimental: as §1, §2
Laparotomy was carried out twice, seven weeks before treatment start of treatment and immediately after end of treatment. There was a duration of at least 3 months between each laparotomy.
After pre-medication with Göttinger Mischung M II (Ketamin, Xylazin and Atropin mixture), an inhalation anaesthesia with Isofluran was carried out which last in average 60 minutes. The abdomen was opened beside line alba for 1 cm range to visualise the reproductive tract and bladder. The endometriotic lesions were characterized and documented in pictures. During the second laparoptomy samples from the lesions were collected. Postoperative care of the animals was carried out as required by local law. The collected tissue samples were fixed in paraformaldehyde and embedded in paraffin or stored at −80° C. Before abdominal suture, all organs were replaced in their place. All females were separated from their males for some hours due to medical reasons and obtained antibiotics for some days.
Laparotomy analysis was performed to assess endometriotic lesions.

[3] = test system: Marmoset monkeys (Callithrix jacchus), established endometriosis; assay: Feeding tree behaviour test; format: in vivo; conditions: during treatment, all animals
Description: (§3) Different behavioural test systems were used to study pain and discomfort, social comfort, memory, learning and activity were set up. All primates used in the study were familiar with the test-systems (for a period of more than 6 months) to confirm that the obtained results are related to the medication and not a learning effect over time.
(§4) Two test systems were used in the study as described in Arnold et al., J Med Primatol., 40, 317-326 (2011). • 1. Feeding tree • 2. Wisconsin General Testing apparatus (WGTA) Before and during the study documentation of social interaction, such as grooming, were performed.
The feeding tree was to test movement activity associated with pain, discomfort and/or distress. The feeding tree offers food at different positions to reach, which requires different levels of movement. If an animal has discomfort, distress or abdominal pain it will not search for food at upper areas or at all. Moreover, systematic search is reduced if memory is impaired. In the setting, each primate had to empty every reward-containing hideouts within 5 minutes to be fully successful. The response of the 8 animals was graded before, during and after treatment on a scale of 0-4 indicting the number of hideouts emptied within 5 minutes.

[4] = test system: Marmoset monkeys (Callithrix jacchus), established endometriosis; assay: Wisconsin General Testing Apparatus (WGTA) memory and learning test; format: in vivo; conditions: during the treatment, all females
Description: as §3, §4
Memory and learning of the primates were tested. All animals are train-rewarded for the WGTA. The animal, which is sitting in the transport box, is either trained for special figures or places, which hide the reward. The observer can watch the behaviour of the animal, but the animal cannot see the observer.
The 8 animals were tested in the WGTA for memory by remembering either the figure or location of the hidden reward. Wellbeing of a primate is associated with willingness to search for food, which is also included by this test system. The animals have to find the reward underneath the three different figures three times within 5 minutes. Each animal is either trained for the location of the figure or figure itself.

[5] = test system: Marmoset monkeys (Callithrix jacchus), established endometriosis; assay: Social interaction (grooming) observation; format: in vivo; conditions: during treatment compared to before treatment, all animals
Experimental: as §4
The documentation of grooming was carried out by daytime observation. These behaviour observations give information about wellbeing, while grooming is a marker for positive social activity. The social grooming was documented 1 h after breakfast and 1 h after lunch by observing the couples each time for 10 minutes. For each animal, the number of grooming interactions in the observed period was recorded.

[6] = test system: Marmoset monkeys (Callithrix jacchus), established endometriosis; assay: General health status: clinical signs and blood chemistry; format: in vivo; conditions: oral 6.67 mg/kg twice/day for 6 weeks
Experimental: (§5) All animals were weighed weekly before and during the treatment. Health body checks including clinical signs as well as blood chemistry analysis were carried out in a regular manner by the responsible vet.

[7] = test system: Marmoset monkeys (Callithrix jacchus), established endometriosis; assay: Reproductive cycle monitoring by serum progesterone; format: in vivo; conditions: after treatment
Experimental: For analysis of serum progesterone concentration to monitor the reproductive cycle, blood was collected weekly before and during treatment. Serum was separated from blood samples by centrifugation (2600 rpm 10 min, Eppendorf Centrifuge 5810 R) within two hours of sampling and stored at minus 80° C.

[8] = Body weight (weighed weekly); format: in vivo, Marmoset monkeys (Callithrix jacchus); conditions: during the treatment period; oral 6.67 mg/kg twice/day for 6 weeks
Experimental: as §5

[9] = Week 7 (EoT), individual animals 1-8 (one line each), oral 6.67 mg/kg twice/day for 6 weeks
[10] = Week 7 (EoT), individual animals 1-8 (one line each), oral 6.67 mg/kg twice/day for 6 weeks, 6.67 mg/kg

Q: What does the source list for `Cn1c(Nc2c(Cl)ccc(CNC(=O)C(C)(C)C)c2Cl)nc2cc(C(=O)N[C@H]3CC[C@H](C(F)(F)F)CC3)c(OCC(F)F)cc21` [compound of formula I, 2-{2,6-dichloro-3-[(2,2-dimethyl-propionylamino)-methyl]-phenylamino}-6-(2,2-difluoroethoxy)-1-methyl-1H-benzoimidazole-5-carboxylic acid (trans-4-trifluoromethylcyclohexyl)-amide]?
A: Individual data on blood flow bladder ([1]; Week 1): 3 (3×) and 2 (3×) and 1 (2×); Individual data on blood flow repro tract ([1]; Week 1): 3 and 2 (5×) and 1 (2×); Blood flow bladder, median score ([1]; Week 1): 2; Blood flow repro tract, median score ([1]; Week 1): 2; Individual data on blood flow bladder ([1]; Week 4): 3 and 2 (3×) and 1 (4×); Individual data on blood flow repro tract ([1]; Week 4): 2 (3×) and 1 (4×) and 0; Blood flow bladder, median score ([1]; Week 4): 1.5; Blood flow repro tract, median score ([1]; Week 4): 1; Individual data on blood flow bladder ([1]; Week 6): 2 and 1 (7×); Individual data on blood flow repro tract ([1]; Week 6): 2 (3×) and 1 (3×) and 0 (2×); Blood flow in reproductive tract (uterus and ovaries) area and bladder area, result in words ([1]; all animals, both areas, oral 6.67 mg/kg twice/day for 6 weeks): Decreased blood flow; Number of endometriotic lesions repro tract, lesion size 2-4 mm [2, 9]: 0; Number of endometriotic lesions repro tract, lesion size >4 mm [2, 9]: 0; Number of endometriotic lesions on the bladder, Total [2, 10]: 4 (2×) and 14 and 24 and 7 and 12 and 5 and 10; Number of endometriotic lesions on the bladder, lesion size 2-4 mm [2, 10]: 0 (6×) and 3 and 5; Number of endometriotic lesions on the bladder, lesion size <2 mm [2, 10]: 0 (4×) and 5 and 12 and 4 and 7; Number of endometriotic lesions on the bladder, lesion size >4 mm [2, 10]: 0 (6×) and 3 and 2; Number of endometriotic lesions on the bladder, lesion size s.p. (visible but not measurable) [2, 10]: 4 and 2 and 5 (2×) and 7 and 0 and 12 and 3; Number of endometriotic lesions repro tract, Total [2, 10]: 0 (2×) and 3 (2×) and 8 and 2 (2×) and 4; Number of endometriotic lesions repro tract, lesion size <2 mm [2, 10]: 0 (5×) and 2 (2×) and 4; Number of endometriotic lesions repro tract, lesion size s.p. (visible but not measurable) [2, 10]: 0 (2×) and 1 and 4 and 3 and 2 (3×); Endometric foci at laparotomy, result in words ([2]; all animals, all sizes of foci affected, after 6 weeks of treatment): Pronounced reduction; Success rate in the feeding tree (hideouts emptied within 5 minutes, scale 0-4) [3]: improved; WGTA success rate of correct figure or location within time [4]: increased success rate; Grooming interactions [5]: increased; Blood laboratory parameters ([6]; before and after treatment): in the physiological range; Clinical signs, general health behaviour of the study animals ([6]; during the study period, 8 female marmosets): no changes; Animals showing irregular cycles ([7]; of 8 animals, before therapy 5 irregular cycles and 1 no activity): 2 animals; Animals showing ovarian cycle activity ([7]; before therapy 2 of 8 animals showed ovarian cycle activity): 6 out of 8; Change in body weight [8]: no significant change

From patent US20260146029A1, “METHODS FOR THE TREATMENT OR PROPHYLAXIS OF ENDOMETRIOSIS” (Gesynta Pharma AB, priority 2022, published 2026)
